13 molecules from BigSolDB 2.1 can be followed below.

The conditions of one data set: in n-octanol, 290.15 K.
By solubility (mole fraction) is commonly meant the moles of solute divided by all moles in the saturated solution. Molecule `Nc1ccc(S(=O)(=O)Nc2cc(Cl)ccc2Cl)cc1` gave a solubility (mole fraction) of 0.000347.
`Nc1ccc(S(=O)(=O)Nc2ccc(Cl)cc2)cc1` registered a solubility (mole fraction) of 0.00126.
`Nc1ccc(S(=O)(=O)Nc2ccc(Cl)c(Cl)c2)cc1` returned a solubility (mole fraction) of 0.000317.

Staying with this data set, now noted: in n-octanol, 293.15 K.
On to `Cc1cc(N)ccc1S(=O)(=O)Nc1ccc(Cl)cc1`, for which the solubility (mole fraction) was 0.00319.
Regarding `Cc1cc(N)ccc1S(=O)(=O)Nc1ccccc1Cl`, the solubility (mole fraction) came out at 8.97e-05.
`Cc1cc(Cl)ccc1NS(=O)(=O)c1ccc(N)cc1` displayed a solubility (mole fraction) of 0.00426.
Molecule `Cc1ccc(Cl)cc1NS(=O)(=O)c1ccc(N)cc1` had a solubility (mole fraction) of 0.00153.
`Cc1ccc(NS(=O)(=O)c2ccc(N)cc2)cc1Cl` showed a solubility (mole fraction) of 0.000491.
On the same count and under the same terms, the result for `Nc1ccc(S(=O)(=O)Nc2cc(Cl)c(Cl)cc2Cl)cc1` reads 0.00097; that for `Cc1ccc(NS(=O)(=O)c2ccc(N)cc2)c(Cl)c1`, 0.00133; that for `Nc1ccc(S(=O)(=O)Nc2ccc(Cl)cc2)c(Cl)c1`, 0.0021.
Same read-out and setting: the result for `Cc1cc(N)ccc1S(=O)(=O)Nc1ccccc1[N+](=O)[O-]` reads 0.000152; that for `Nc1ccc(S(=O)(=O)Nc2ccccc2Cl)c(Cl)c1`, 5.85e-05.

Staying with this data set, now noted: in n-octanol, 298.15 K.
As for `Cc1cc(N)ccc1S(=O)(=O)Nc1ccc(Cl)cc1`, the solubility (mole fraction) came out at 0.00356.
`Cc1cc(N)ccc1S(=O)(=O)Nc1ccccc1Cl` had a solubility (mole fraction) of 0.000115.
For the molecule `Nc1ccc(S(=O)(=O)Nc2cc(Cl)ccc2Cl)cc1`, the solubility (mole fraction) worked out at 0.000412.
Molecule `Cc1cc(Cl)ccc1NS(=O)(=O)c1ccc(N)cc1` gave a solubility (mole fraction) of 0.00489.
On the same count and under the same terms, the figure for `Cc1ccc(Cl)cc1NS(=O)(=O)c1ccc(N)cc1` is 0.00188; for `Cc1ccc(NS(=O)(=O)c2ccc(N)cc2)cc1Cl` it is 0.000552.
The same measure, in the same setting: the figure for `Nc1ccc(S(=O)(=O)Nc2cc(Cl)c(Cl)cc2Cl)cc1` is 0.00109; for `Cc1ccc(NS(=O)(=O)c2ccc(N)cc2)c(Cl)c1` it is 0.00158; for `Nc1ccc(S(=O)(=O)Nc2ccc(Cl)cc2)c(Cl)c1` it is 0.00248.
With `Nc1ccc(S(=O)(=O)Nc2ccc(Cl)cc2)cc1`, the solubility (mole fraction) was 0.00132.
In turn, `Nc1ccc(S(=O)(=O)Nc2ccc(Cl)c(Cl)c2)cc1` returned a solubility (mole fraction) of 0.000356.
The molecule `Cc1cc(N)ccc1S(=O)(=O)Nc1ccccc1[N+](=O)[O-]` registered a solubility (mole fraction) of 0.000198.
The molecule `Nc1ccc(S(=O)(=O)Nc2ccccc2Cl)c(Cl)c1` came in with a solubility (mole fraction) of 7.4e-05.

The same data set, now with this note: in n-octanol, 303.15 K.
Take `Cc1cc(N)ccc1S(=O)(=O)Nc1ccc(Cl)cc1`: the solubility (mole fraction) was 0.00393.
The molecule `Cc1cc(N)ccc1S(=O)(=O)Nc1ccccc1Cl` had a solubility (mole fraction) of 0.000143.
As to `Nc1ccc(S(=O)(=O)Nc2cc(Cl)ccc2Cl)cc1`, the solubility (mole fraction) was 0.000529.
`Cc1cc(Cl)ccc1NS(=O)(=O)c1ccc(N)cc1` showed a solubility (mole fraction) of 0.00556.
In turn, `Cc1ccc(Cl)cc1NS(=O)(=O)c1ccc(N)cc1` showed a solubility (mole fraction) of 0.00221.
Molecule `Cc1ccc(NS(=O)(=O)c2ccc(N)cc2)cc1Cl` returned a solubility (mole fraction) of 0.00064.
`Nc1ccc(S(=O)(=O)Nc2cc(Cl)c(Cl)cc2Cl)cc1` came in with a solubility (mole fraction) of 0.00118.
With `Cc1ccc(NS(=O)(=O)c2ccc(N)cc2)c(Cl)c1`, the solubility (mole fraction) turned out to be 0.0018.
Consider `Nc1ccc(S(=O)(=O)Nc2ccc(Cl)cc2)c(Cl)c1`, for which the solubility (mole fraction) worked out at 0.00287.
Turning to `Nc1ccc(S(=O)(=O)Nc2ccc(Cl)cc2)cc1`, the solubility (mole fraction) was found to be 0.00145.
Same read-out and setting: the figure for `Nc1ccc(S(=O)(=O)Nc2ccc(Cl)c(Cl)c2)cc1` is 0.000422.
For the molecule `Cc1cc(N)ccc1S(=O)(=O)Nc1ccccc1[N+](=O)[O-]`, the solubility (mole fraction) amounted to 0.000247.
In turn, `Nc1ccc(S(=O)(=O)Nc2ccccc2Cl)c(Cl)c1` had a solubility (mole fraction) of 9.37e-05.

The same data set, now with this note: in n-octanol, 310.15 K.
In turn, `Cc1cc(N)ccc1S(=O)(=O)Nc1ccc(Cl)cc1` displayed a solubility (mole fraction) of 0.00465.
Same read-out and setting: the figure for `Cc1cc(N)ccc1S(=O)(=O)Nc1ccccc1Cl` is 0.000192; for `Nc1ccc(S(=O)(=O)Nc2cc(Cl)ccc2Cl)cc1` it is 0.000667.
Turning to `Cc1cc(Cl)ccc1NS(=O)(=O)c1ccc(N)cc1`, the solubility (mole fraction) was found to be 0.00675.
In the case of `Cc1ccc(Cl)cc1NS(=O)(=O)c1ccc(N)cc1`, the solubility (mole fraction) is 0.00273.
The molecule `Cc1ccc(NS(=O)(=O)c2ccc(N)cc2)cc1Cl` gave a solubility (mole fraction) of 0.000801.
The molecule `Nc1ccc(S(=O)(=O)Nc2cc(Cl)c(Cl)cc2Cl)cc1` registered a solubility (mole fraction) of 0.00146.
Molecule `Cc1ccc(NS(=O)(=O)c2ccc(N)cc2)c(Cl)c1` displayed a solubility (mole fraction) of 0.00221.
Turning to `Nc1ccc(S(=O)(=O)Nc2ccc(Cl)cc2)c(Cl)c1`, the solubility (mole fraction) worked out at 0.00349.
With `Nc1ccc(S(=O)(=O)Nc2ccc(Cl)cc2)cc1`, the solubility (mole fraction) came to 0.00153.
Molecule `Nc1ccc(S(=O)(=O)Nc2ccc(Cl)c(Cl)c2)cc1` displayed a solubility (mole fraction) of 0.000501.
The molecule `Cc1cc(N)ccc1S(=O)(=O)Nc1ccccc1[N+](=O)[O-]` returned a solubility (mole fraction) of 0.000345.
Still for that read-out and setting: the figure for `Nc1ccc(S(=O)(=O)Nc2ccccc2Cl)c(Cl)c1` is 0.000128.

The data set is the same for the next values; noted with them: in n-octanol, 315.15 K.
In turn, `Cc1cc(N)ccc1S(=O)(=O)Nc1ccc(Cl)cc1` showed a solubility (mole fraction) of 0.00519.
In the case of `Cc1cc(N)ccc1S(=O)(=O)Nc1ccccc1Cl`, the solubility (mole fraction) came out at 0.000242.
In the case of `Nc1ccc(S(=O)(=O)Nc2cc(Cl)ccc2Cl)cc1`, the solubility (mole fraction) is 0.00089.
`Cc1cc(Cl)ccc1NS(=O)(=O)c1ccc(N)cc1`: the solubility (mole fraction) was found to be 0.00786.
Turning to `Cc1ccc(Cl)cc1NS(=O)(=O)c1ccc(N)cc1`, the solubility (mole fraction) amounted to 0.00323.
On to `Cc1ccc(NS(=O)(=O)c2ccc(N)cc2)cc1Cl`, for which the solubility (mole fraction) is 0.000897.
With `Nc1ccc(S(=O)(=O)Nc2cc(Cl)c(Cl)cc2Cl)cc1`, the solubility (mole fraction) was determined as 0.00179.
Turning to `Cc1ccc(NS(=O)(=O)c2ccc(N)cc2)c(Cl)c1`, the solubility (mole fraction) is 0.00259.
Still for that read-out and setting: the result for `Nc1ccc(S(=O)(=O)Nc2ccc(Cl)cc2)c(Cl)c1` reads 0.00391; that for `Nc1ccc(S(=O)(=O)Nc2ccc(Cl)cc2)cc1`, 0.00167.
Take `Nc1ccc(S(=O)(=O)Nc2ccc(Cl)c(Cl)c2)cc1`: the solubility (mole fraction) is 0.000617.
Same read-out and setting: the result for `Cc1cc(N)ccc1S(=O)(=O)Nc1ccccc1[N+](=O)[O-]` reads 0.000449.
In turn, `Nc1ccc(S(=O)(=O)Nc2ccccc2Cl)c(Cl)c1` came in with a solubility (mole fraction) of 0.000164.
